Source: patent US6602914B2, “Compounds and methods for the inhibition of the expression of VCAM-1” (AtheroGenics, Inc., priority 1997, dated 2003)

Tests used:
ApoB/HepG2 = experiment: Lipid Screen & IC50 Determination Protocol: ApoB ELISA of HEPG2 media; type: cell-based, human; settings: HEPG2, 24 hours
Description: HEPG2 cell was started in 10 ml of MEM, 10% FBS, 1 mM Sodium Pyruvate. The cells were incubated in a tissue culture incubator. The cells were split into 4×96-wells plate in MEM, 10% FBS, 1 mM Sodium Pyruvate and allowed to grow to about 50% confluency and then removed.
The cells were treated with the desired concentration of compounds in 100 μl DMEM, 1% RSA for 24 hours. The compounds are dissolved in DMSO.
On the same day, 4×96-wells NuncImmunoSorb plate is coated with 100 μl of mouse anti-human ApoB monoclonal 1D1 (1:1000 dilution in 1×PBS, pH 7.4). The coating is allowed overnight.
The coated plate is washed 3 times with 1×PBS, pH 7.4, −0.05% Tween 20. 100 μl of the standards is added to the selected wells. ApoB standards are prepared at 6.25, 3.12, 1.56, 0.78, 0.39 ng, and each concentration is done in triplicates. For samples:
90 μl of 1×PBS, pH 7.4, −0.05% Tween 20 is added to each well corresponding to the sample. 10 μl of media is transferred from the treated HEPG2 plates to the ApoB ELISA plate. The plate is incubated at room temperature for 2 hours, rocking gently.
Wash the coated plate 3× with 1×PBS, pH 7.4, −0.05% Tween 20. Add 100 μl of sheep anti-human ApoB polyclonal from Boehringer Mannheim. (1:2000 dilution in 1×PBS, pH 7.4, −0.05% Tween 20) from Boehringer Mannheim. Incubate at room temperature for 1 hour, rocking gently. Wash the coated plate 3× with 1×PBS, pH 7.4, −0.05% Tween 20. Add 100 μl of rabbit anti-sheep IgG (1:2000 dilution in 1×PBS, pH 7.4, −0.05% Tween 20). Incubate at room temperature for 1 hour, rocking gently. Wash the coated plate 3× with 1×PBS, pH 7.4, −0.05% Tween 20. Add 100 μl of substrate (10 ml of distilled water, 100 μl of TMB (10 mg/ml), and 1 μl of hydrogen peroxide). Allow color to emerge and stop reaction with 25 ul of 8N sulfuric acid. Wells are read with MicroPlate Reader @ […]. Graph accumulation of ApoB in media as a percentage of control for each sample and their concentration. A determination of IC50 is obtained from the graph.
The degree of inhibition of the compounds of formulas (I) and (II) was determined by the assays described in Examples 62-64.

VCAM-1 = VCAM-1 Assay: TNF-stimulated cells, cell-surface ELISA; type: cell-based; settings: bare number = IC50; NE not defined in the patent; read-out: VCAM-1 IC50 or % inhibition at [μM]: IC50
Description: Two to four confluent P150 plates are trypsinized and the cells transferred to a 50 mL conical centrifuge tube. The cells are pelleted, resuspended, and counted using the trypan blue exclusion method.
Cells are resuspended at a concentration of 36,000 cells/mL and 1 mL is aliquoted per well.
Cells are split into 24 well tissue culture plates. The cells in each well should be approximately 90-95% confluent by the following day. Cells should not be older than passage 8.
Compounds are initially screened at 50 μM and 10 μM. A 50 mM stock solution for each compound is prepared in culture medium. The stock solution is diluted to 5 mM and 1 mM. When 10 μL of the 5 mM solution is added to the well (1 mL medium/well), the final concentration will be 50 μM. Adding 10 μL of the 1 mM solution to the well will give a final concentration of 10 μM.
Compounds which will not go into solution in culture medium are resuspended in DMSO at a concentration of 25 mM. The stock solution is then diluted to the final concentration in culture medium. The old medium is aspirated and 1 mL of the new medium with the compound is added. For example, if the final concentration is 50 μM, the 2 μL of the 25 mM stock is added per mL of culture medium. The […] solution is diluted for lower concentrations.
The compounds are added to the plate (each compound is done in duplicate). One plate is done for VCAM expression and one plate is done for ICAM expression.
Immediately after the compounds are added, TNF is added to each well. 100 units/mL TNF is usually added to each well. Since each lot of TNF varies in the number of units, each new lot is titrated to determine the optimum concentration. Therefore this concentration will change. If 100 units/mL is bing used, dilute the TNF to 10 units/μL and add 10 μL to each well.
The plates are incubated at 37° C., 5% CO2 overnight (approximately 16 hours). The next day the plates are checked under the microscope to see if there are any visual signs of toxicity. Records are made of any cell death, debris, or morphology changes, as well as insoluble compounds (particulate or turbity).
In order to assess MCP-1, the media (500 μL) is saved and frozen at −70° C. Wash cells once with roughly 1 ml/well of Hanks Balance Salt Solution (HBSS) or PBS. Gently empty the wash solution and then tap the plate onto paper towels. Add either 250 μL/well of HBSS +5% FCCS to the plank (no primary antibody wells) or 250 μL/well of primary antibody diluted in HBSS +5% FCS. Incubate for 30 minutes at 37° C. Wash the wells twice with 0.5 mL/well HBSS or PBS and gently tap the plates onto paper towels after the last wash. Add 250 μL/well of HRP-conjugated second antibody diluted in HBSS +5% FCS to every well including the blank wells (no primary antibody). Incubate at 37° C. for 30 minutes. Wash the wells four times with 0.5 mL/well HBSS or PBS and gently tap the plates onto paper towels after the last wash. Add 250 μL/well of substrate solution. Incubate at room temperature in the dark until there is adequate color development (blue). Note the length of time incubation was performed (typically 15-30 minutes). Add 75 μL/well stopper solution (8N sulfuric acid), and read A450 nm.

Structure (SMILES): CC(C)(Sc1cc(C(C)(C)C)c(O)c(C(C)(C)C)c1)Sc1cc(C(C)(C)C)c(OC(=O)CCC(=O)O)c(C(C)(C)C)c1 [Butanedioic acid, mono [4-[[1-[[3,5-bis(1,1-dimethylethyl)-4-hydroxyphenyl]thio]-1-methylethyl]thio]2,6-bis(1,1-dimethylethyl)phenyl]ester]
- ApoB/HepG2 % inhibition at [μM] (ApoB/HepG2; at 15 μM): 65% at 15
- IC50 (VCAM-1): 5.6 µM

Structure (SMILES): CN(C)S(=O)(=O)c1ccc(CSc2cc(C(C)(C)C)c(O)c(C(C)(C)C)c2)cc1 [2,6-di-tert-butyl-4-thio(4′-methyl-N,N-dimethylbenzenesulfonamide)phenol]
- IC50 (ApoB/HepG2; bare number = IC50, NE not defined in the patent, read-out: ApoB/HepG2 IC50 or % inhibition at [μM]: IC50): 31 µM
- IC50 (VCAM-1): 20 µM
